ChEMBL document CHEMBL3808383, “Synthesis and antitubercular evaluation of novel dibenzo[b,d]thiophene tethered imidazo[1,2-a]pyridine-3-carboxamides” (Bioorg Med Chem Lett, 2016)
Values after ≈ are worked out from the molar mass of the structure shown.

Legend:
[1] = tested on: Mycobacterium tuberculosis; assay: Antimycobacterial activity against Mycobacterium tuberculosis H37Rv ATCC 27294 after 28 days by agar dilution method; format: functional; details: H37Rv ATCC 27294, 672 h
[2] = Cytotoxicity against HEK293T cells assessed as cell growth inhibition at 50 ug/mL after 72 hrs by MTT assay; format: cell-based, HEK-293T; details: human, read-out: GI

| Structure (SMILES) | MIC50 [1] [µM] | MIC ([1]; read-out: MIC) [µg/mL] | MIC ([1]; read-out: MIC100) [µM] | inhibition at 72 h, 50 ug/mL [2] [%] |
| --- | --- | --- | --- | --- |
| COc1ccc(CCNC(=O)c2c(C)nc3ccccn23)cc1 | 2.63 (≈ 0.814 µg/mL) | – | – | – |
| Cc1nc2ccccn2c1C(=O)NCc1ccccc1 | 1.86 (≈ 0.493 µg/mL) | – | – | – |
| O=C(NCc1ccc(N2CCSCC2)cc1)c1c(-c2ccc3sc4ccccc4c3c2)nc2ccccn12 | – | 25 | – | – |
| O=C(NCc1ccc(N2CCN(Cc3ccccc3)CC2)cc1)c1c(-c2ccc3sc4ccccc4c3c2)nc2ccccn12 | – | 25 | – | – |
| O=C(NCc1ccc(N2CCC(Cc3ccccc3)CC2)cc1)c1c(-c2ccc3sc4ccccc4c3c2)nc2ccccn12 | – | 0.78 | 1.3 | 34.8 |
| O=C(NCc1ccc(Oc2ccc(F)cc2)cc1)c1c(-c2ccc3sc4ccccc4c3c2)nc2ccccn12 | – | 25 | – | – |
| O=C(NCc1ccc(F)cc1)c1c(-c2ccc3sc4ccccc4c3c2)nc2ccccn12 | – | 3.13 | – | 25.8 |
| O=C(NCc1ccc(C(F)(F)F)cc1)c1c(-c2ccc3sc4ccccc4c3c2)nc2ccccn12 | – | 12.5 | – | – |
| O=C(NCc1ccccc1)c1c(-c2ccc3sc4ccccc4c3c2)nc2ccccn12 | – | 3.13 | 7.21 | 34.6 |
| O=C(NCc1ccc(N2CCN(c3ccccc3F)CC2)cc1)c1c(-c2ccc3sc4ccccc4c3c2)nc2ccccn12 | – | 25 | – | – |
| O=C(NCc1ccc(Cl)cc1)c1c(-c2ccc3sc4ccccc4c3c2)nc2ccccn12 | – | 25 | – | – |
| CC(C)(C)c1ccc(CNC(=O)c2c(-c3ccc4sc5ccccc5c4c3)nc3ccccn23)cc1 | – | 1.56 | 3.22 | 18.8 |
| CCc1nc2ccccn2c1C(=O)NCc1ccc(Oc2ccc(OC(F)(F)F)cc2)cc1 | 0.013 (≈ 0.00592 µg/mL) | – | – | – |
| Cc1ccc(CNC(=O)c2c(-c3ccc4sc5ccccc5c4c3)nc3ccccn23)cc1 | – | 12.5 | – | – |
| CC(C)(C)c1ccc(Oc2ccc(CNC(=O)c3c(-c4ccc5sc6ccccc6c5c4)nc4ccccn34)cc2)cc1 | – | 25 | – | – |
| O=C(NCc1ccc(Oc2ccc(Cl)cc2)cc1)c1c(-c2ccc3sc4ccccc4c3c2)nc2ccccn12 | – | 25 | – | – |
| O=C(NCc1ccc(N2CCN(c3ccc(Cl)cc3)CC2)cc1)c1c(-c2ccc3sc4ccccc4c3c2)nc2ccccn12 | – | 1.56 | 2.5 | 24.4 |
| O=C(NCc1ccc(Oc2ccccc2)cc1)c1c(-c2ccc3sc4ccccc4c3c2)nc2ccccn12 | – | 6.25 | – | 38.4 |
| O=C(NCc1ccc(N2CCOCC2)cc1)c1c(-c2ccc3sc4ccccc4c3c2)nc2ccccn12 | – | 25 | – | – |
| O=C(NCc1ccc(OC(F)(F)F)cc1)c1c(-c2ccc3sc4ccccc4c3c2)nc2ccccn12 | – | 25 | – | – |
| COc1ccc(CNC(=O)c2c(-c3ccc4sc5ccccc5c4c3)nc3ccccn23)cc1 | – | 6.25 | – | 37 |
| O=C(NCc1ccc(Oc2ccc(OC(F)(F)F)cc2)cc1)c1c(-c2ccc3sc4ccccc4c3c2)nc2ccccn12 | – | 12.5 | – | – |
| CC[C@@H](CO)NCCN[C@@H](CC)CO [ETHAMBUTOL] | – | 3.13 | – | – |
| NNC(=O)c1ccncc1 [ISONIAZID] | – | 0.1 | – | – |
| NC(=O)c1cnccn1 [PYRAZINAMIDE] | – | 50 | – | – |
